Laboratory results taken from the supplement of paper PMC13380429.

Tests used:
Conditions in all cases: 72 h
[1] = tested on: U2OS; test: relative viability EC50 (midpoint between 100% and the lowest measured viability); higher = less toxic
[2] = tested on: Caco-2; test: as above
[3] = tested on: Calu-3; test: as above
[4] = tested on: Vero E6; test: as above
[5] = tested on: HepG2; test: as above
[6] = tested on: U2OS; test: drug sensitivity score (DSS) for viability; higher = more toxic; extreme values may be limits of the assay
[7] = tested on: Caco-2; test: as above
[8] = tested on: Calu-3; test: as above
[9] = tested on: Vero E6; test: as above
[10] = tested on: HepG2; test: as above
[11] = tested on: U2OS; test: cell viability relative to DMSO; higher = less toxic
[12] = tested on: Caco-2; test: as above
[13] = tested on: Calu-3; test: as above
[14] = tested on: Vero E6; test: as above
[15] = tested on: HepG2; test: as above

Row | SMILES | relative viability EC50 [1] | relative viability EC50 [2] | relative viability EC50 [3] | relative viability EC50 [4] | relative viability EC50 [5] | drug sensitivity score [6] | drug sensitivity score [7] | drug sensitivity score [8] | drug sensitivity score [9] | drug sensitivity score [10] | cell viability ([11]; 1 nM) | cell viability ([11]; 10 nM) | cell viability ([11]; 100 nM) | cell viability ([11]; 1000 nM) | cell viability ([11]; 10000 nM) | cell viability ([12]; 1 nM) | cell viability ([12]; 10 nM) | cell viability ([12]; 100 nM) | cell viability ([12]; 1000 nM) | cell viability ([12]; 10000 nM) | cell viability ([13]; 1 nM) | cell viability ([13]; 10 nM) | cell viability ([13]; 100 nM) | cell viability ([13]; 1000 nM) | cell viability ([13]; 10000 nM) | cell viability ([14]; 1 nM) | cell viability ([14]; 10 nM) | cell viability ([14]; 100 nM) | cell viability ([14]; 1000 nM) | cell viability ([14]; 10000 nM) | cell viability ([15]; 1 nM) | cell viability ([15]; 10 nM) | cell viability ([15]; 100 nM) | cell viability ([15]; 1000 nM) | cell viability ([15]; 10000 nM)
1 | O=C(NCc1ccccn1)Nc1nnc(-c2ccco2)o1 [NK-252] | > 10 µM | > 10 µM | > 10 µM | > 10 µM | 1.47 µM | 0 | 1.4 | 0 | 0 | 6.5 | 103% | 101% | 105% | 99.3% | 103% | 103% | 94.6% | 103% | 91.5% | 80.7% | 104% | 99.9% | 94.2% | 103% | 107% | 94.5% | 104% | 104% | 103% | 101% | 104% | 97.4% | 90.4% | 77.2% | 30.6%
2 | C[C@@]1(O)[C@H](O)[C@@H](CO)O[C@H]1n1ccc(N)nc1=O [NM107] | > 10 µM | > 10 µM | > 10 µM | > 10 µM | > 10 µM | 0 | 0 | 0.3 | 0 | 0 | 98.3% | 93.4% | 100% | 94.8% | 101% | 93% | 97.3% | 95.9% | 91.2% | 103% | 99.1% | 104% | 95% | 93.9% | 84.6% | 96% | 100% | 88.7% | 99.4% | 113% | 99% | 107% | 106% | 111% | 110%
3 | Cc1cc(OCc2nnc(SC3CCCC3)n2-c2cccnc2)ccc1-c1ccc(S(C)(=O)=O)cc1 [NMS-873] | 1.96 µM | 1.64 µM | 1.85 µM | 2.19 µM | 0.175 µM | 8.1 | 7.3 | 7.1 | 7.5 | 19.7 | 97% | 98.5% | 91.1% | 84.6% | 0.2% | 102% | 101% | 83.6% | 77.7% | 17.8% | 88.8% | 93.1% | 92.1% | 85.3% | 16.2% | 105% | 102% | 107% | 88% | 0.3% | 107% | 96.2% | 61.6% | 19.7% | 1.5%
4 | c1ccc2c(c1)CCC[C@H]2Nc1nc2ccccc2[nH]1 [NS-8593] | > 10 µM | > 10 µM | > 10 µM | > 10 µM | > 10 µM | 0 | 0 | 0 | 0 | 0.8 | 104% | 98.1% | 96.2% | 100% | 90.1% | 93.1% | 92.9% | 92.4% | 97.2% | 92.2% | 96.2% | 96.2% | 94% | 94.3% | 90.1% | 94% | 95.1% | 95.6% | 98.4% | 87.4% | 96.8% | 96.8% | 106% | 99.2% | 78.5%
5 | CCCCCCCCCC(=O)O[C@H]1CC[C@H]2[C@@H]3CCC4=CC(=O)CC[C@@H]4[C@H]3CC[C@]12C [Nandrolone decanoate] | > 10 µM | > 10 µM | > 10 µM | > 10 µM | > 10 µM | 0 | 0 | 0 | 0 | 0 | 102% | 99.3% | 99.1% | 101% | 94% | 90.7% | 104% | 96.2% | 106% | 96.4% | 94.1% | 88.6% | 83% | 90.9% | 89% | 108% | 97.1% | 102% | 97.5% | 104% | 104% | 95.7% | 97.9% | 102% | 101%
6 | COC(=O)C1=C(C)NC(C)=C(C(=O)OCCSc2ccccc2)[C@@H]1C [PCA-4248] | > 10 µM | > 10 µM | > 10 µM | > 10 µM | > 10 µM | 0 | 0.8 | 0.1 | 0 | 0 | 98% | 95.9% | 93.6% | 92.9% | 96.1% | 97.7% | 99.4% | 102% | 94.8% | 84% | 93.8% | 95.6% | 104% | 99% | 87.7% | 98.1% | 99.1% | 98.2% | 96.5% | 98.8% | 92% | 90.3% | 93.4% | 94.6% | 95.9%
7 | CN1CCN(C(=O)CN[C@@H]2C[C@H]2c2ccc(OCc3ccccc3)cc2)CC1 [RN-1] | > 10 µM | > 10 µM | > 10 µM | > 10 µM | > 10 µM | 0 | 1.5 | 0 | 0.1 | 0.7 | 103% | 98.3% | 102% | 96.7% | 96% | 109% | 95.2% | 90.2% | 89.2% | 83.3% | 89.9% | 82.5% | 96.1% | 94.5% | 108% | 99.5% | 102% | 105% | 92.2% | 89.1% | 87.4% | 103% | 99.9% | 94.2% | 84.9%
